What follows are compounds tested against PD-1/PD-L1 (Homo sapiens (Human), UniProt Q9NZQ7) (assay: PD-1/PD-L1 Homogenous Time-Resolved Fluorescence (HTRF) binding assay). Settings: PD-L1-His 10 nM, PD-1-Ig 20 nM; reported as range class; read-out: IC50 (μM) (Range or value).
Description: The ability of the compounds of formula (I) to bind to PD-L1 was investigated using a PD-1/PD-L1 Homogenous Time-Resolved Fluorescence (HTRF) binding assay.
Homogenous Time-Resolved Fluorescence (HTRF) Binding Assay
The interaction of PD-1 and PD-L1 can be assessed using soluble, purified preparations of the extracellular domains of the two proteins. The PD-1 and PD-L1 protein extracellular domains were expressed as fusion proteins with detection tags, for PD-1, the tag was the Fc portion of Immunoglobulin (PD-1-Ig) and for PD-L1 it was the 6 histidine motif (PD-L1-His). All binding studies were performed in an HTRF assay buffer consisting of dPBS supplemented with 0.1% […] bovine serum albumin and 0.05% (v/v) Tween-20. For the h/PD-L1-His binding assay, inhibitors were pre-incubated with PD-L1-His (10 nM final) for 15m in 4 μl of assay buffer, followed by addition of PD-1-Ig (20 nM final) in 1 μl of assay buffer and further incubation for 15 m. HTRF detection was achieved using europium crypate-labeled anti-Ig (1 nM final) and allophycocyanin (APC) labeled anti-His (20 nM final). Antibodies were diluted in HTRF detection buffer and 5 μl was dispensed on top of the binding reaction. The reaction mixture was allowed to equilibrate for 60 minutes and the resulting signal (665 nm/620 nm ratio) was obtained using an EnVision fluorometer. Additional binding assays were established between the human proteins PD-1-Ig/PD-L2-His (20 & 2 nM, respectively) and CD80-His/PD-L1-Ig (100 & 10 nM, respectively).
Recombinant Proteins: Human PD-1 (25-167) with a C-terminal human Fc domain of immunoglobulin G (Ig) epitope tag [hPD-1 (25-167)-3S-IG] and human PD-L1 (18-239) with a C-terminal His epitope tag [hPD-L1(18-239)-TVMV-His] were expressed in HEK293T cells and purified sequentially by ProteinA affinity chromatography and size exclusion chromatography. Human PD-L2-His and CD80-His was obtained through commercial sources.

Chain of PD-1/PD-L1 (Q9NZQ7 other isoform, or with tags, fused parts or gaps): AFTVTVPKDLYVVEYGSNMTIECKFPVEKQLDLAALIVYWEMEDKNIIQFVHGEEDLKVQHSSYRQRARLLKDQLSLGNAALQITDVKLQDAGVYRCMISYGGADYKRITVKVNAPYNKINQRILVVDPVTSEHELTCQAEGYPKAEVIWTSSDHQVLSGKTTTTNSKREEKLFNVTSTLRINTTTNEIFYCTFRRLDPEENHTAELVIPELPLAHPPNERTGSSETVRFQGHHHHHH

First: Cc1c(COc2cc3c(c(OCc4cncc(C#N)c4)c2)CN(CC(=O)O)CC3)cccc1-c1ccc2c(c1)OCCO2 [Example 1001, 2-(8-((5-cyanopyridin-3-yl)methoxy)-6-((3-(2,3-dihydrobenzo[b][1,4]dioxin-6-yl)-2-methylbenzyl)-oxy)-3,4-dihydroisoquinolin-2(1H)-yl)acetic acid]
Second: Cc1c(COc2cc(OCc3cncc(C#N)c3)cc3c2CN(CC(=O)O)CC3)cccc1-c1ccc2c(c1)OCCO2 [Example 1002, 2-(6-((5-cyanopyridin-3-yl)methoxy)-8-((3-(2,3-dihydrobenzo[b][1,4]-dioxin-6-yl)-2-methylbenzyl)oxy)-3,4-dihydroiso-quinolin-2(1H)-yl)acetic acid]
The IC50 of the first is lower: 0.002 to 0.015 µM for the first, 0.051 to 1.5 µM for the second. The first is the more potent here.

Compared with `Cc1c(COc2cc(O)c3c(c2)CCN(CC(=O)O)C3)cccc1-c1ccc2c(c1)OCCO2` [Example 1003, 2-(6-((3-(2,3-dihydrobenzo[b][1,4]dioxin-6-yl)-2-methylbenzyl)oxy)-8-hydroxy-3,4-dihydroisoquinolin-2(1H)-yl)acetic acid], `Cc1c(COc2ccc3c(c2)CN[C@@H](C(=O)O)C3)cccc1-c1ccc2c(c1)OCCO2` [Example 1004, (R)-7-((3-(2,3-dihydrobenzo[b][1,4]dioxin-6-yl)-2-methylbenzyl)oxy)-1,2,3,4-tetrahydroisoquinoline-3-carboxylic acid] is higher in IC50: 0.051 to 1.5 µM for the first, 1.51 to 10 µM for the second.

`COC(=O)c1cncc(COc2cc(OCc3cccc(-c4cccc(OCCCN5CC[C@@H](O)C5)c4C)c3C)c(Cl)c3c2CN(CC(=O)O)CC3)c1` [Example 1007, (R)-2-(5-chloro-6-((3′-(3-(3-hydroxypyrrolidin-1-yl)propoxy)-2,2′-dimethyl-[1,1′-biphenyl]-3-yl)methoxy)-8-((5-(methoxycarbonyl)pyridin-3-yl)methoxy)-3,4-dihydro-isoquinolin-2(1H)-yl)acetic acid] was tested, and the IC50 was 0.016 to 0.05 µM.

Same assay, conditions: PD-L1-His 10 nM, PD-1-Ig 20 nM; reported as value; read-out: IC50 (μM) (Range or value)

Point of comparison: `Cc1c(COc2cc(OCc3cncc(C#N)c3)c3c(c2Cl)CCN(CC(=O)O)C3)cccc1-c1cccc(OCCCN2CC[C@@H](O)C2)c1C` [Example 1006, (R)-2-(5-chloro-8-((5-cyanopyridin-3-yl)methoxy)-6-((3′-(3-(3-hydroxypyrrolidin-1-yl)propoxy)-2,2′-dimethyl-[1,1′-biphenyl]-3-yl)methoxy)-3,4-dihydroisoquinolin-2(1H)-yl)acetic acid], IC50 0.002 µM. Against it:
- Cc1c(COc2ccc3c(c2)CN[C@H](C(=O)O)C3)cccc1-c1ccc2c(c1)OCCO2 [Example 1005, (S)-7-((3-(2,3-dihydrobenzo[b][1,4]dioxin-6-yl)-2-methylbenzyl)oxy)-1,2,3,4-tetrahydroisoquinoline-3-carboxylic acid] — higher, > 10 µM
- COC(=O)CN1CCc2c(Cl)c(OCc3cccc(-c4cccc(OCCCN5CC[C@@H](O)C5)c4C)c3C)cc(OCc3cncc(C(=O)OC)c3)c2C1 [Example 1008, methyl (R)-5-(((5-chloro-6-((3′-(3-(3-hydroxypyrrolidin-1-yl)propoxy)-2,2′-dimethyl-[1,1′-biphenyl]-3-yl)methoxy)-2-(2-methoxy-2-oxoethyl)-1,2,3,4-tetrahydroisoquinolin-8-yl)oxy)methyl)nicotinate] — higher, > 10 µM

From patent US11046675B2, “Substituted isoquionline derivatives as immunomudulators” (Bristol-Myers Squibb Company, priority 2017, dated 2021)
